In US20200009118A1, “COMPOSITIONS AND METHODS FOR THE TREATMENTOF NEURODEGENERATIVE AND OTHER DISEASES” (Glialogix, Inc., priority 2017, published 2020):

Experiments:
Assay type in all cases: cell-based
[1] = system: xCT mRNA in primary rat astrocyte cells; assay: qPCR of xCT mRNA in primary astrocytes
Method: (§1) Primary rat astrocyte cells were purchased from All Cells (Catalog #RCTX-001F, Alameda, Calif.), thawed and resuspended in 13.4 ml of DMEM media (Catalog #12-614F, Lonza, Allendale, N.J.) supplemented with 15% v/v FBS (Catalog #F4135, Sigma-Aldrich, St. Louis, Mo.) and 560 μL aliquoted into wells in a 24-well plate. Cells were incubated at 37° C. with 5% CO2. For each qPCR experiment, 2-3 wells (approximately 42,000-63,000 cells) were transferred to a new 24-well plate with fresh astrocyte media, composed of 50% v/v DMEM, 50% v/v Neurobasal media (Catalog #12348-017), Life Technologies, supplemented with 2 mM glutamine, 300 μM L-cystine. Following 24 hours, cells were then mixed and aliquoted into 24 well plates at approximately 10,000 cells per well in the same media. Compounds to be tested were then added at the indicated concentrations and cells harvested 18 hours later by washing once with PBS (Catalog #P5493, Sigma-Aldrich) and then treated with 300 μl of StemProAccutase cell dissociation reagent (Catalog #A11105-01, Life Technologies) and incubated for 5-10 minutes at 37° C. PBS (300 μl) was added and the cells spun down in a microfuge for 5 minutes at 2,000×g at 4° C. The supernatant was removed and mRNA was isolated from the cells by using the Purelink microscale RNA extraction kit (Catalog #12183016, Life Technologies) according to the manufacturer's instructions. The mRNA resuspended in 12-22 μl of RNase-free water. cDNA was prepared by use of the Superscript VILO kit (Catalog #11755050, Life Technologies) according to the manufacturer's instructions. The cDNA was eluted in a final volume of 20 μl RNase-free water in and 4 μl was used for each qPCR reaction. qPCR reactions and primers were as described in Example 11.
(§2) To determine if tunicamycin increased levels of xCT mRNA, Tunicamycin (5 ng/ml) was added to the primary astrocyte cell cultures in astrocyte media. xCT gene expression was determined by qPCR after 18 hours of exposure to tunicamycin.
(§3) The Cycle threshold is abbreviated Ct. The change in Ct equals [Ct (minus test agent)−Ct (plus test agent)]. Changes in Ct of the test genes xCT and Lcn-2 are normalized by subtracting the change in Ct of the control gene, either gamma-actin or Hypoxanthine-guanine phosphoribosyl transferase (HPRT). Ct values are converted to absolute values by the formula: absolute value=2^^(normalized change in Ct). Absolute values are converted to percent change by multiplying the absolute value by 100.
(§4) Using the methods described in Example 11, various agents known to cause activation of neuroinflammatory cells and/or cause or reflect stress and damage to neurons, axons and/or oligodendrocytes were tested for causing an increase in xCT levels in primary rat astrocytes.

[2] = system: Lcn-2 mRNA in primary rat astrocyte cells; assay: qPCR of Lcn-2 mRNA in primary astrocytes; conditions: astrocyte media
Method: as §1, §2, §3, §4

[3] = system: IL1-beta mRNA in primary rat microglial cells; assay: qPCR of IL1-beta mRNA in primary microglia; conditions: control gene gamma-actin
Method: (§5) Following 24 hours, cells were then mixed and aliquoted in to 96 wells at 7,000-20,000 cells per well in fresh media, either complete media (microglia) or minimal media (100 mL Neurobasal Media (#12348-017, Life Tech) supplemented with 1 mL N2 supplement (#17502-048, Life Tech) and 0.5 mM GlutaMax (#35050-061, Life Tech). Compounds to be tested were then added at the indicated concentrations and cells harvested 18 hours later by centrifugation at 2000×g, 5 minutes at 4° C. mRNA was isolated from the cells by use of the Purelink microscale RNA extraction kit (Catalog #12183016, Life Technologies) kit and the mRNA resuspended in 12-22 μl of RNase-free water according to the manufacturer's instructions. cDNA was prepared by use of the Superscript VILO kit (Catalog #11755050, Life Technologies) according to the manufacturer's instructions. The cDNA was eluted in a final volume of 20 μl RNase-free water and 4 μl was used for each qPCR reaction. For the real-time qPCR reactions, primers and reagents were supplied by Life Technologies and used according to the manufacturer's instructions. The detection molecule was the TaqMan probe with FAM dye label on 5′ end that binds to non-labeled primer pairs. The qPCR machine was a model 7500 Fast Real Time machine from ABI and used according to the manufacturer's instructions. 4 μl of the cDNA reaction was used for each qPCR reactions in a final volume of 20 μl. […] mRNA levels were quantitated by measuring the Cycle threshold (Ct) for each qPCR reaction using the standard algorithm supplied with the ABI 7500 Fast qPCR machine without modification. The Ct is defined as the number of cycles required for the fluorescent signal to cross the threshold (e.g. exceeds background level). […] The Cycle threshold is abbreviated Ct. The change in Ct equals [Ct (minus test agent)−Ct (plus test agent)]. Changes in Ct of the test genes xCT and IL1-beta are normalized by subtracting the change in Ct of the control gene, either gamma-actin or Hypoxanthine-guanine phosphoribosyl transferase (HPRT). […] Using the methods described in Example 11, various agents reported to cause activation of neuroinflammatory cells and/or known to cause or reflect damage to neurons, axons and/or oligodendrocytes were tested for their effect on xCT levels in primary rat microglia.

[4] = system: xCT mRNA in primary rat microglial cells; assay: qPCR of xCT mRNA in primary microglia; conditions: control gene gamma-actin
Method: as §5

[5] = 10 ug/ml, astrocyte media, control gene gamma-actin
[6] = 100 ng/ml, complete media, 18 hours
[7] = 100 ng/ml, minimal media, 18 hours
[8] = 5 ng/ml, astrocyte media, 18 hours
[9] = 25 ng/ml, astrocyte media, control gene HPRT
[10] = 25 ng/ml, astrocyte media, control gene gamma-actin
[11] = 100 ng/ml, astrocyte media, control gene gamma-actin
[12] = 100 ng/ml, control gene gamma-actin

With Poly I/C the “xCT, Change in Ct normalized to control gene” value [1, 5] was 1.471, the “xCT, Fold change normalized” value [1, 5] was 2.77 and the “xCT, Percent change normalized” value [1, 5] was 277%. The “Lcn-2, Percent change normalized” value ([2]; 10 ug/ml, control gene gamma-actin) was 76%, the “IL1-beta, Percent change normalized” value [3, 6] was 1,900% and the “IL1-beta, Percent change normalized” value [3, 7] was 1,099%. The “xCT, Change in Ct normalized to control gene” value [4, 6] was 6.186, the “xCT, Fold (absolute) change normalized” value [4, 6] was 72.8 and the “xCT, Percent change normalized” value [4, 6] was 7,281%. The “xCT, Change in Ct normalized to control gene” value [4, 7] was 3.619, the “xCT, Fold (absolute) change normalized” value [4, 7] was 12.3 and the “xCT, Percent change normalized” value [4, 7] was 1229%.

Tunicamycin was tested, and the “xCT, Absolute change normalized to Gamma-actin” value [1, 8] was 56.1, the “xCT, Absolute change normalized to HPRT” value [1, 8] was 23.1 and the “xCT, Change in Ct (not normalized)” value [1, 8] was 5.529. The “xCT, Change in Ct normalized to Gamma actin” value [1, 8] was 5.809, the “xCT, Change in Ct normalized to HPRT” value [1, 8] was 4.530 and the “xCT, Ct with agent” value [1, 8] was 25.060. For the same molecule, the “xCT, Percent change normalized to Gamma-actin” value [1, 8] was 5,606%, the “xCT, Percent change normalized to HPRT” value [1, 8] was 2,310% and the “xCT expression increased by” value ([1]; 5 ng/ml, regardless of normalization to gamma-actin or HPRT) was “over 2,000%”. For the same molecule, the “xCT, Change in Ct normalized to control gene” value [1, 9] was 4.540, the “xCT, Fold change normalized” value [1, 9] was 23.26 and the “xCT, Percent change normalized” value [1, 9] was 2,326%. The “xCT, Change in Ct normalized to control gene” value [1, 10] was 5.915, the “xCT, Fold change normalized” value [1, 10] was 60.34 and the “xCT, Percent change normalized” value [1, 10] was 6,034%. The “Lcn-2, Absolute change normalized to Gamma-actin” value ([2]; 5 ng/ml, 18 hours) was 64.6, the “Lcn-2, Absolute change normalized to HPRT” value ([2]; 5 ng/ml, 18 hours) was 32.3 and the “Lcn-2, Change in Ct (not normalized)” value ([2]; 5 ng/ml, 18 hours) was 5.734. For the same molecule, the “Lcn-2, Change in Ct normalized to Gamma actin” value ([2]; 5 ng/ml, 18 hours) was 6.014, the “Lcn-2, Change in Ct normalized to HPRT” value ([2]; 5 ng/ml, 18 hours) was 5.015 and the “Lcn-2, Ct with agent” value ([2]; 5 ng/ml, 18 hours) was 27.123. The “Lcn-2, Percent change normalized to Gamma-actin” value ([2]; 5 ng/ml, 18 hours) was 6,460%, the “Lcn-2, Percent change normalized to HPRT” value ([2]; 5 ng/ml, 18 hours) was 3,230% and the “Lcn-2, Percent change normalized” value ([2]; 25 ng/ml, control gene HPRT) was 2,290%. For the same molecule, the “Lcn-2, Percent change normalized” value ([2]; 25 ng/ml, control gene gamma-actin) was 5,940%.

For IL-17A: inflammatory cytokine, the “xCT, Change in Ct normalized to control gene” value [1, 11] was 0.351, the “xCT, Fold change normalized” value [1, 11] was 1.28 and the “xCT, Percent change normalized” value [1, 11] was 128%. The “Lcn-2, Percent change normalized” value [2, 12] was 123%, the “xCT, Change in Ct normalized to control gene” value ([4]; 10 ng/ml, complete media) was 1.652 and the “xCT, Fold change normalized” value ([4]; 10 ng/ml, complete media) was 3.1. The “xCT, Percent change normalized” value ([4]; 10 ng/ml, complete media) was 314%.

In the case of IFN-gamma: inflammatory cytokine, the “IL1-beta, Percent change normalized” value ([3]; 30 ng/ml, complete media) is reported as 2,043%, the “IL1-beta, Percent change normalized” value [3, 6] is reported as 446% and the “xCT, Change in Ct normalized to control gene” value ([4]; 30 ng/ml, complete media) is reported as 1.417. The “xCT, Fold change normalized” value ([4]; 30 ng/ml, complete media) was 2.7, the “xCT, Percent change normalized” value ([4]; 30 ng/ml, complete media) was 270% and the “xCT, Change in Ct normalized to control gene” value [4, 6] was 1.636. The “xCT, Fold (absolute) change normalized” value [4, 6] was 3.1 and the “xCT, Percent change normalized” value [4, 6] was 311%.

B1: IL-4: anti-inflammatory cytokine, tested as a control (protein, UniProt P05112 25-153, looked up)
Interleukin-4: HKCDITLQEIIKTLNSLTEQKTLCTELTVTDIFAASKNTTEKETFCRAATVLRQFYSHHEKDTRCLGATAQQFHRHKQLIRFLKRLDRNLWGLAGLNSCPVKEANQSTLENFLERLKTIMREKYSKCSS
For B1, the “xCT, Change in Ct normalized to control gene” value [1, 11] was −0.097, the “xCT, Fold change normalized” value [1, 11] was 0.93 and the “xCT, Percent change normalized” value [1, 11] was 93%. The “Lcn-2, Percent change normalized” value [2, 12] was 103%, the “xCT, Change in Ct normalized to control gene” value [4, 6] was −0.147 and the “xCT, Fold (absolute) change normalized” value [4, 6] was 0.9. The “xCT, Percent change normalized” value [4, 6] was 90%.
